Activity calls are given as the source filed them. The calls are words filed in the database; no cut-off is given here.
Key:
[1] = Cytotoxicity against mouse P388 cells; type: functional, cell-based
[2] = Antifungal activity against wild-type Candida albicans ATCC 32354 assessed as growth inhibition using alamar blue staining measured after 14 to 16 hrs by microdilution assay; type: functional
[3] = Antifungal activity against Trichophyton assessed as growth inhibition using alamar blue staining measured after 14 to 16 hrs by microdilution assay; type: functional
[4] = tested on: Aspergillus; assay: Antifungal activity against Aspergillus assessed as growth inhibition using alamar blue staining measured after 14 to 16 hrs by microdilution assay; type: functional
[5] = target: Lipid bilayer; assay: Binding affinity to POPC large unilamellar vesicle in pH 7.4 phosphate buffer by SPR analysis
[6] = Binding affinity to cholesterol containing POPC large unilamellar vescicle in pH 7.4 phosphate buffer by SPR analysis
[7] = Binding affinity to cholesterol containing DMPC-d54/DHPC-d22 bicelles assessed as […] measured at ratio of 1:10 Mn2+ to compound by 1H NMR spectroscopy relative to control
[8] = Binding affinity to cholesterol containing DMPC-d54/DHPC-d22 bicelles assessed as […] measured at ratio of 4:10 Mn2+ to compound by 1H NMR spectroscopy relative to control
[9] = Induction of membrane damage in POPC/cholesterol GUV model assessed as membrane curvature at 20 uM after 13 to 55 mins by TNM-DCCH staining based confocal microscopic analysis
[10] = Binding affinity to DMPC-d54/DHPC-d22 bicelles assessed as […] measured at ratio of 4:10 Mn2+ to compound by 1H NMR spectroscopy relative to control
[11] = Binding affinity to cholesterol containing DMPC-d54/DHPC-d22 bicelles assessed as broadening of aromatic/olefinic signals at 6.5 to 7.6 ppm measured at 200 uM by 1H NMR spectroscopy
[12] = Diffusion coefficient of the compound D2O at 11 mM and 25 degC by 1H NMR spectroscopy; type: physicochemical; settings: 11000 µM
[13] = Aqueous diffusion coefficient of compound in 98:2 ratio of D2O/H2O solvent system at 25 degC by 1H NMR DOSY spectroscopy; type: physicochemical; settings: buffer

Row | SMILES | IC50 [1] | IC50 [2] | IC50 [3] | IC50 [4] | Kd [5] | Kd [6] | Ratio [7] | Ratio [8] | Activity [9] | Ratio [10] | Activity [11] | D [12] | D [13]
1 | CC(/C=C/c1ccc(Br)cc1)=C\[C@H](O)[C@@H]1CC(=O)N[C@@H](CO)C(=O)N[C@@H]2Cn3cc([n+]([C@H]4OC[C@H](O)[C@H](O)[C@H]4O)c3)C[C@H](NC(=O)C[C@H](O)C[C@@H](C(=O)[O-])NC(=O)CCNC(=O)[C@H](Cc3ccc(Br)cc3)NC(=O)[C@H]([C@@H](O)C(N)=O)NC(=O)[C@H](CC(N)=O)NC2=O)C(=O)N[C@@H]([C@H](C)O)C(=O)N[C@@H](CO)C(=O)N[C@@H](Cc2ccccc2)C(=O)N1 | 500 to 2800 nM | 2000 to 7000 nM | 2000 to 7000 nM | 2000 to 7000 nM | – | – | – | – | – | – | – | – | –
2 | CC(/C=C/c1ccc(Br)cc1)=C\[C@H](O)[C@@H]1CC(=O)N[C@@H](CO)C(=O)N[C@@H]2C[n+]3c[nH]c(c3)C[C@H](NC(=O)C[C@H](O)C[C@@H](C(=O)[O-])NC(=O)CCNC(=O)[C@H](Cc3ccccc3)NC(=O)[C@H]([C@@H](O)C(N)=O)NC(=O)[C@H](CC(N)=O)NC2=O)C(=O)N[C@@H]([C@H](C)O)C(=O)N[C@@H](CO)C(=O)N[C@@H](Cc2ccccc2)C(=O)N1 | 500 to 2800 nM | 2000 to 7000 nM | 2000 to 7000 nM | 2000 to 7000 nM | – | – | – | – | – | – | – | – | –
3 | CC(/C=C/c1ccccc1)=C\[C@H](O)[C@@H]1CC(=O)N[C@@H](CO)C(=O)N[C@@H]2Cn3cc([n+]([C@@H]4O[C@H](CO)[C@H](O)[C@H](O)[C@H]4O)c3)C[C@H](NC(=O)C[C@H](O)C[C@@H](C(=O)[O-])NC(=O)[C@@H](O)CNC(=O)[C@H]([C@@H](C)c3ccc(Br)cc3)NC(=O)[C@H]([C@@H](O)C(N)=O)NC(=O)[C@H](CC(N)=O)NC2=O)C(=O)N[C@@H]([C@H](C)O)C(=O)N[C@@H](CO)C(=O)N[C@@H](Cc2ccccc2)C(=O)N1 | 500 to 2800 nM | 2000 to 7000 nM | 2000 to 7000 nM | 2000 to 7000 nM | 420000 nM | 9200 nM | 0.85 | 0.54 to 0.61 | Active | 0.36 to 0.46 | Active | – | –
4 | CC(/C=C/c1ccc(Br)cc1)=C\[C@H](O)[C@@H]1CC(=O)N[C@@H](CO)C(=O)N[C@@H]2C[n+]3c[nH]c(c3)C[C@H](NC(=O)C[C@H](O)C[C@@H](C(=O)[O-])NC(=O)CCNC(=O)[C@H](Cc3ccc(Br)cc3)NC(=O)[C@H]([C@@H](O)C(N)=O)NC(=O)[C@H](CC(N)=O)NC2=O)C(=O)N[C@@H]([C@H](C)O)C(=O)N[C@@H](CO)C(=O)N[C@@H](Cc2ccccc2)C(=O)N1 | 500 to 2800 nM | 2000 to 7000 nM | 2000 to 7000 nM | 2000 to 7000 nM | – | – | – | – | – | – | – | – | –
5 | CC(/C=C/c1ccc(Br)cc1)=C\[C@H](O)[C@@H]1CC(=O)N[C@@H](CO)C(=O)N[C@@H]2C[n+]3c[nH]c(c3)C[C@H](NC(=O)C[C@H](O)C[C@@H](C(=O)[O-])NC(=O)[C@@H](O)CNC(=O)[C@H]([C@@H](C)c3ccc(Br)cc3)NC(=O)[C@H]([C@@H](O)C(N)=O)NC(=O)[C@H](CC(N)=O)NC2=O)C(=O)N[C@@H]([C@H](C)O)C(=O)N[C@@H](CO)C(=O)N[C@@H](Cc2ccccc2)C(=O)N1 | 500 to 2800 nM | 2000 to 7000 nM | 2000 to 7000 nM | 2000 to 7000 nM | – | – | – | – | – | – | – | – | –
6 | OC[C@H]1O[C@@H]2O[C@H]3[C@H](O)[C@@H](O)[C@@H](O[C@H]4[C@H](O)[C@@H](O)[C@@H](O[C@H]5[C@H](O)[C@@H](O)[C@@H](O[C@H]6[C@H](O)[C@@H](O)[C@@H](O[C@H]7[C@H](O)[C@@H](O)[C@@H](O[C@H]8[C@H](O)[C@@H](O)[C@@H](O[C@H]1[C@H](O)[C@H]2O)O[C@@H]8CO)O[C@@H]7CO)O[C@@H]6CO)O[C@@H]5CO)O[C@@H]4CO)O[C@@H]3CO [BETADEX] | – | – | – | – | – | – | – | – | – | – | – | 2.64 ×10⁻¹⁰ m2/s | 2.63 ×10⁻¹⁰ m2/s
7 | CC(/C=C/c1ccc(Br)cc1)=C\[C@H](O)[C@@H]1CC(=O)N[C@@H](CO)C(=O)N[C@@H]2Cn3cc([n+]([C@@H]4O[C@H](CO)[C@H](O)[C@H](O)[C@H]4O)c3)C[C@H](NC(=O)C[C@H](O)C[C@@H](C(=O)[O-])NC(=O)CCNC(=O)[C@H](Cc3ccc(Br)cc3)NC(=O)[C@H]([C@@H](O)C(N)=O)NC(=O)[C@H](CC(N)=O)NC2=O)C(=O)N[C@@H]([C@H](C)O)C(=O)N[C@@H](CO)C(=O)N[C@@H](Cc2ccccc2)C(=O)N1 | 500 to 2800 nM | 2000 to 7000 nM | 2000 to 7000 nM | 2000 to 7000 nM | – | – | – | – | – | – | – | – | –
